90 molecules from a melting point compilation (Tetko et al.; mined from patent text by program, amines drawn as free bases though some values may be those of a salt) can be followed below.

Regarding `CC1(C)CCc2cc(C#N)ccc2O1`, the melting point (commonly the temperature of the solid-liquid transition) lay within 30 to 31 °C.
The result for `CN(c1cccc2cc(-c3ncc(CCc4n[nH]c(=O)o4)s3)[nH]c12)S(=O)(=O)c1cccs1` reads 255 to 256 °C; that for `O=CN1CCCN2c3ccccc3Cc3ccccc3C2C1` (stereo not given), 146 to 148 °C; that for `Cc1cn(NCCCc2ccncc2F)c2ccc(OC(=O)NN3CCc4ccccc4C3)cc12`, 157 to 160 °C.
`COC(=O)CCc1conc1-c1ccc(F)c(Cl)c1`: the melting point was 39 to 40 °C.
The value for `O=c1[nH]c2cc(-c3ncc[nH]3)c([N+](=O)[O-])cc2[nH]c1=O` was more than 300 °C; that for `COC(=O)C1=C(C)NC(C(C)O)=C(C(=O)OC)C1c1ccccc1Cl` (stereo not given) was 145 to 147 °C.
With `O=c1cc(-c2cc(F)c(O)c(F)c2)oc2ccccc12`, the melting point is 275 to 276 °C.
Consider `Nc1c2c(nc3ccccc13)-c1ccccc1SC2`, for which the melting point fell in the range of 211 to 212 °C.
The result for `CC12C=CC(=O)C=C1CCC1C2C(O)CC2(C)C1CCC2(O)C(O)C(=O)O` (stereo not given) reads 213 to 214 °C.
Turning to `CC(=O)N[C@@H](C)c1ccc(C(=O)O)cc1`, the melting point is 186 to 190 °C.
Regarding `C[Si](C)(Cc1ccc(N(c2ccccc2)c2ccccc2)cc1)Cc1ccc(N(c2ccccc2)c2ccccc2)cc1`, the melting point was 125 to 127 °C.
The result for `COc1ccc(S(=O)(=O)Oc2ccc(N3CCNC3=O)cc2)cc1` reads 126 to 127 °C; that for `CC(=O)Nc1cc(Cl)ccc1OCC#N`, 146 to 149 °C; that for `CC(=O)N1c2cc(Cl)ccc2OP1c1ccccc1` (stereo not given), 56 to 58 °C.
The value for `Cn1cnnc1Sc1nc(-c2ccc(Cl)cc2)c(CCC(=O)O)o1` was 186 to 188 °C.
Regarding `O=[N+]([O-])c1cc(C(F)(F)F)ccc1NCCO`, the melting point was determined as 74.9 °C.
The value for `C=C(CN(C)C)C(O)c1ncc2c(c1O)COC2(C)c1ccccc1` (stereo not given) was 178 to 179 °C; that for `CC(=O)Nc1c(C)ccc([N+](=O)[O-])c1C` was 171 to 173 °C; that for `Cc1n[nH]c(C)c1[C@H](C)NC(=O)COc1cc(C(F)(F)F)c2c(-c3ccccc3)nn(C)c2n1` was 145 to 147 °C.
The value for `Cc1ccccc1CC(C)(C)NC(C)(O)c1ccc(O)c(O)c1C` (stereo not given) was 166 to 169 °C; that for `c1ccc(N=C(NC(=Nc2ccccc2)N2CCCCO2)c2ccccc2)cc1` was 187 to 190 °C.
The value for `Cn1c(=O)ccc2cnc(NCc3ccccc3)nc21` was 160 to 162 °C.
Take `CCOC(=O)CN1c2ccccc2Oc2ccccc21`: the melting point was 96 to 97 °C.
The result for `Cc1ccc(S(=O)(=O)N2CCN(C(=O)c3cc4cc(O)ccc4cc3O)CC2)cc1` reads 135 to 137 °C.
The result for `O=C1C(=Cn2ccnc2)c2ccccc2N1c1cccc(Cl)c1` reads 164 to 166 °C; that for `COc1ccc2[nH]cc(CCC(=O)Nc3ccccc3C(=O)O)c2c1`, 168 to 170 °C; that for `CCn1ncc2nc(C(=O)O)c(C)nc21`, 148 to 149 °C.
With `CN(NC(=O)OC(C)(C)C)C(=O)C(C)(C)ON=C(C(=O)O)c1csc(N)n1`, the melting point was determined as 145 °C.
The value for `N#Cc1cc(F)c2ncc(C(=O)NCc3ccc(Cl)cc3)c(O)c2c1` was more than 300 °C.
The value for `CC(C)N=C(N=c1ccccn1CCc1ccccc1Br)NC(C)C` was 125 to 128 °C; that for `CN(C)C=Nc1c(Cl)cc(NCc2ccc(N(C)C)cc2Br)cc1Cl` was 135 to 137 °C.
The value for `CCN(CC)C(=O)c1ccccc1C1CC1c1ccccc1` (stereo not given) was 52 to 53 °C; that for `C=CC(=O)N(C)CCCCCCCCCCCOc1ccc(C(=O)O)c(C(=O)O)c1` was 95 °C.
`Nc1nc(NCCc2cc(Br)cs2)nc2c1ncn2C1OC(CO)C(O)C1O` (stereo not given): the melting point lay within 136 to 144 °C.
The result for `CCOP(=O)(/C=C/c1cn(-c2ccccc2)nc1OCc1ccc(OCc2nc(-c3ccc(C)c(C(=O)O)c3)oc2CC)c(OC)c1)OCC` reads 165 to 166 °C.
The result for `CCCc1noc(/C=C/c2cn(-c3ccccc3)nc2OCc2ccc(OCc3nc(-c4ccco4)oc3C)c(OC)c2)n1` reads 192 to 193 °C.
The result for `COC(=O)CCSCc1ccc2oc(-c3ccc4ccc(Cl)cc4n3)cc2c1` reads 96 to 103 °C; that for `COc1cccc(Oc2ccc(C(=O)N(C(C)C)C3CCCCC3)cc2)c1`, 101 °C; that for `C=C(c1ccc(Cl)cc1)C1(n2ccnc2)CC1`, 94 to 95 °C.
As for `CC(=O)Nc1nc(CCc2ccc(CC#N)cc2)cs1`, the melting point lay in the range of 160 to 161 °C.
The value for `COc1ccccc1C1(O)c2cc(NC(=O)CC(C)(C)C)c(C)c(C)c2OC1(C)C` (stereo not given) was 168 to 169 °C.
The result for `CCOC(=O)c1c(C)cc(NC(=O)CCl)c(C(=O)O)c1C` reads 124 to 125 °C; that for `CCCC1CCCNC1=O` (stereo not given), 75 to 76 °C; that for `O=C(NC(Cc1ccc(OCc2ccoc2)cc1)C(=O)O)c1cn2nc(-c3ccc(Cl)cc3)ccc2n1` (stereo not given), 220 °C.
The result for `CC(=O)Nc1ccc2c(c1)nc(/C=C/c1ccccc1)n2-c1ccccn1` reads 105 to 107 °C; that for `FC(F)(F)CN1CCC(n2ccc3ccccc32)CC1`, 79 to 81 °C; that for `CNc1nc(-c2ccc(F)cc2)n(-c2ccc(SC)cc2)c(=O)c1C#N`, 219 to 222 °C.
Turning to `COC(=O)C(C)(C)n1c(=O)[nH]c2ccccc2c1=O`, the melting point was in the range of 158 to 159 °C.
The result for `Cc1cc(C)c2c(n1)Nc1cc(C)c(C)cc1NC2=O` reads 264 to 268 °C; that for `CC/C(=C\C#N)c1ccc2c(c1)C(CC)(CC)OC(=O)N2`, 135 to 136 °C.
The value for `CCOC(=O)Cc1sc(Sc2cc(C(=O)OC)ccn2)nc1C` was 52 to 54 °C; that for `CC(C)(C)OC(=O)N1CCc2cc(-c3ccc(Cl)cc3)ccc2C1` was 88.5 to 90.5 °C.
The value for `CC(C)C[C@H](NC(=O)c1ccc2c(c1)Nc1ccccc1S2)C(=O)N[C@H]1CCOC1OC(=O)c1ccccc1` (stereo not given in full) was 193 to 195 °C; that for `Nc1ncccc1-c1nc2cc(-c3ccc(C(=O)O)o3)cnc2n1-c1ccc(CNC(=O)c2ccccc2)cc1` was 211 to 217 °C; that for `CCCC1Sc2c(cc(OC)c(Cl)c2Cl)C1O` (stereo not given) was 119 to 120 °C.
`COc1ccc(C2CCN(C(=O)CC(=O)O)CC2)cc1OC1CCCC1` returned a melting point of 122 to 123 °C.
The result for `Brc1ccc(N(Cc2ccccc2)c2ccccc2)cc1` reads 97 to 98 °C; that for `CCc1ccc(S(C)(=O)=O)c(C(=O)c2ccc(F)cc2)c1`, 145 to 147 °C; that for `O=C(C=Cc1ccccc1)N1CCc2c([nH]c3ccccc23)C1c1ccc2c(c1)CCC2` (stereo not given), 223 °C.
The result for `COC=C(C(=O)OC)c1ccccc1CC(=O)c1ccccc1` reads 97 to 99 °C; that for `COC(=O)NNCc1ccc(Cl)cc1Cl`, 82 to 83 °C; that for `COc1ccc(-c2nc3c(C(=O)NC4CC5CCCC(C4)N5C)cccc3o2)cc1` (stereo not given), 103 to 105 °C.
The value for `CC(=O)Nc1ccc(-c2nc3c(s2)C(=O)c2ccccc2C3=O)o1` was more than 260 °C; that for `CCCc1c(OCCCCCOc2ccc3ccc(OCC(=O)OCC)cc3c2CCC(=O)OCC)ccc2c1OCCC2=O` was 68 to 69.5 °C; that for `O=c1[nH]c2ccc(Cn3ccnc3)cc2[nH]c1=O` was more than 300 °C.
On to `CCNC(=O)c1sc(C)cc1[Si](C)(C)C`, for which the melting point is 112 to 115 °C.
The value for `COC(=O)c1ccc(-c2oc3nc[nH]c(=O)c3c2C(=O)OCc2ccccc2)cc1` was 248 to 249 °C; that for `Cc1csc2ccc3c(c4c(n3CCCN(C)C)CCNC4)c12` was 92 °C.
The value for `COC(=O)C(Cc1cc(Br)c(O)c(Br)c1)NC(=O)C(F)(F)F` (stereo not given) was 136 to 137 °C.
The result for `COc1cc2c(cc1OC)C(=O)C(c1ccc3c(c1)OCO3)CC2` (stereo not given) reads 168 to 170 °C.
Take `CCOC(=O)C(=Cc1ccc(OC)cc1OC)C(=O)OCC`: the melting point was in the range of 40 to 41 °C.
The value for `CCCCCc1c(C(C)C)nc(C(C)C)c(CNCC)c1-c1ccc(F)cc1` was 48 to 50 °C; that for `CC(Oc1ncn(-c2cccc(Br)c2)n1)C(=O)NC1CC1` (stereo not given) was 134 to 135 °C.
`Cn1cnc2c1c(=O)n(CCCCCCO)c(=O)n2C`: the melting point lay within 98 to 100 °C.
As to `O=S(=O)(/C(=C\c1ccccc1)CO)c1ccccc1`, the melting point is 67.5 to 69 °C.
`CC(C)(C)OC(=O)N1CCc2c(n(CCOc3ccccc3)c3cc(Cl)c(Cl)cc23)CC1` came in with a melting point of 136 to 138 °C.
The result for `CCCCCC(CNC(=O)Nc1c(C(C)C)cccc1C(C)C)c1cccc2c1OCO2` (stereo not given) reads 161 to 163 °C.
The value for `COc1ccc(C2CCc3cc(Br)ccc3O2)cc1` (stereo not given) was 121 to 123 °C.
The result for `CCC(C)(C)NCC(O)c1ccc(O)c(O)c1OC` (stereo not given) reads 172 to 174 °C; that for `CC(C)(N)c1ccc(-c2nc(Nc3ccc(F)c(Cl)c3)ncc2C#N)cc1`, 237 °C; that for `CCNCC1(C)CN(c2cc3c(cc2F)c(=O)c(C(=O)O)cn3C2CC2)C1`, 221 to 226 °C.
Regarding `CC(=O)NC(COCc1cc(C)cc(C)c1)Cc1cccc2ccccc12` (stereo not given), the melting point lay in the range of 119 to 120 °C.
The value for `Cc1nnnn1-c1ccc(/C(=C\C2CCCC2)C(=O)O)cc1Cl` was 216 to 219 °C; that for `N#CCOc1ccccc1OCC#N` was 85 to 85.5 °C; that for `CN(C)C(=S)Nc1ccccc1N1CCOCC1` was 150 to 152 °C.
In turn, `CS(=O)(=O)c1ccc(-n2cncc2-c2ccc(F)cc2F)cc1` displayed a melting point of 119 °C.
The value for `OCc1cc(OCc2ccccc2)nn1C1CCCCC1` was 195 to 196 °C; that for `NS(=O)(=O)c1ccc(-c2noc(-c3cnc4ccc(-c5ccc(Cl)cc5)cn34)n2)s1` was 263 °C; that for `Cc1noc(NS(=O)(=O)c2c(Cc3ccc4c(c3)OCO4)sc3ccccc23)c1Cl` was 178 to 181 °C.
